Measured values as given in patent US11046647B2, “Activators of the unfolded protein response” (The Board of Trustees of the University of Illinois, priority 2018, dated 2021).

Experiments:
MCF-7 cells = test: Alamar Blue/raptinal 24-hour cell death assay, MCF-7; assay type: cell-based, human; settings: 24-hour incubation, Alamar blue fluorescence
Experimental: FIG. 4. […] MCF7 (ERα) cells, 24 hour incubation, read out via Alamar Blue Fluorescence, Dead Control: Raptinal, n=3 (A, B). […] Orthotopic Mouse Xenograft breast cancers of TYS cells, Visualization by bioluminescent imaging. Treatment: 40 mg/kg daily (−)-105 for 3 days either by oral gavage or by intraperitoneal injection.
ALAMAR BLUE/RAPTINAL ASSAY: Live cells maintain a reducing environment. The non-fluorescent cell permeable ingredient of Alamar Blue® (resazurin) is taken up by cells. In living cells, it is reduced to the fluorescent compound resorufin. Using a standard curve of cell number versus fluorescence the number of live cells in a test sample can be determined. At high concentrations raptinal kills 100% of cells. The vehicle in which the test compound is dissolved is not toxic. Thus, after subtracting the blank for medium alone, the fluorescence reading for vehicle corresponds to 100% viable cells and the signal for raptinal corresponds to 0% viable cells. While this assay provides a less direct measurement of cell death than the trypan blue assay, it is more easily scaled up to large numbers of samples.
(§1) ALAMAR BLUE RAPTINAL ASSAYS: Cells were plated at 4,000-10,000 cells/well (96 well plate), usually in 50 μl of medium. After about 18 hours, an additional 50 μl of medium containing 2× the desired final concentration of the test compound (C-105) was added to each well. After 24 hours Alamar Blue reagent was added and fluorescence in the wells was read (BMG PheraStar or Molecular Devices Spectra Max M3 Microplate Reader). % relative death was determined by setting the reading for raptinal-treated cells to 100% dead cells and the reading for vehicle-treated cells to 0% dead cells.
Preparative gram-scale chiral separation of (±)-1 yields enantiopure (R)-1 and (S)-1 with opposite optical rotations (Scheme 5). […] Values were obtained after 24-hour incubation utilizing Alamar blue fluorescence assay normalized to live and death controls (vehicle and raptinal treated). (S)-1 IC50 is >1 μM. Error shown as S.E.M.

T47D cells = settings: 100, 500 and 1,000 nM; 24 hours; n=1
Experimental: One such change is loss of plasma membrane polarity. This is monitored using Annexin V. Dying cells also take up the dye propidium iodide. Propidium iodide (PI) fluoresces when it is intercalated into DNA. These assays monitor cells at specific stages of cell death.
FLOW CYTOMETRY (FITC) ASSAYS: Cells were seeded in 12-well plates, 75,000 cells/well, and allowed to adhere overnight. The next day, the indicated concentrations of raptinal (positive control), (−)-105, (±)-105, and (+)-105 were added and allowed to incubate at 37° C. for 24 hours (Final Volume: 1 ml, 0.1% DMSO). After incubation, cells were harvested and resuspended in 350 μl of cold Annexin binding buffer (10 mM HEPES, 140 mM NaCl, 2.5 mM CaCl2, pH 7.4) premixed with Annexin V-FITC and PI dyes. Samples were analyzed on a BD Biosciences LSRII flow cytometer, and data analysis was performed using FSC Express Version 5-6. Cell death was assessed relative to a DMSO treated control.
T47D, human breast cancer cells were plated at 75,000 cells/well. The next day, DMSO vehicle, 10 μM raptinal (control for 100% cell death), or 0, 50, 100 500 and 1,000 nM of BHPI or (±)-105, or 1,000 nM ICI/fulvestrant or 1,000 nM OHT was added. After 24 hours viable cells were determined by FACS using annexin V-FITC and propidium iodide dyes. (n=3 independent experiments ±SEM).
75,000 ERα positive T47D, human breast cancer cells, were plated/well. The next day, DMSO vehicle, 10 μM raptinal (control for 100% cell death), or 100 500 and 1,000 nM of (+)-105, or (−)-105 was added. After 24 hours viable cells were determined by FACS using annexin V-FITC and propidium iodide dyes. (n=1).

TDG cells = test: Trypan Blue exclusion cell death assay, TDG / TDG-Luc; assay type: cell-based, human; settings: 24 hours; TDG-Luc
Text: (§2) TRYPAN BLUE: For decades, viable cells have been measured by their ability to exclude the dye Trypan Blue. […] Dead cells, which have lost membrane integrity, take up the dye and are blue. Thus, the percentage of dead cells is the percentage of cells that are Trypan Blue positive out of the total cell population. Quantitative assessment of Trypan Blue uptake uses a cell counter from Fisher. Since the assay is instrument based, there is no observer bias in determining the percentage of Trypan Blue positive cells.
(§3) TRYPAN BLUE ASSAYS: Assays are performed on cells in 6 well plates: 300,000 cells are plated in each well of a 6-well plate in 3 ml of medium. After 24 hours, the DMSO vehicle or the indicated compound is added (in 1000th of the vol.) The cells incubated for an additional 24 hours, and then harvested in 0.25 ml of trypsin, followed after harvest by 0.75 ml of medium. The cells are spun down and resuspended in 100-200 μl of medium left that is over the cell pellet (resuspend cells by pipetting up and down a few times). Add 10 μl to 10 μl of trypan blue. Then 10 μl is inserted into the counting slide. After inserting the slide into the Fisher TC20 counting is automatic (these many cells are needed because an accurate ratio of Trypan Blue positive to Trypan Blue negative cells requires about 200 cells in the field the instrument counts).
The Trypan Blue cell death assay was used to evaluate the ability of the active enantiomer of C-105 [(−)-105] to kill ERα positive TDG-Luc cells. For all studies, 300,000 TDG-Luc cells/well in 10% FBS were plated in a 6-well plate in triplicate. 24 hours after plating, the indicated concentrations the active enantiomer of (−)-105, or BHPI (top) ICI, or OHT (Lower left) or (+)-105 (lower right) were added. After 24 hours, the cells were harvested, and the % dead cells was determined by automated Trypan Blue exclusion using the Countess II automated hemocytometer. Percentage of viable cells was calculated by doing 100-(Cell Death %). (n=3±SEM).
TDG cells were incubated for 24 hours with 75 nM of BHPI or 75 nM of each of the indicated test compounds: 4, 6 and (±)-105 (enantiomers not separated). Cell death was determined using the instrument-based Trypan Blue exclusion assay. Structures are in the Synthesis section. […] (n=3±SEM).

[1] = tested on: MCF-7Y537S (MCF-7 ERαY537S-luciferase) cells; test: Long-term cell culture experiment, MCF-7 ERαY537S-luciferase; assay type: cell-based, human; settings: conditions as FIG. 15 (1 μM)
[2] = tested on: ERα positive and ERα negative cells; assay type: cell-based
Experimental: as §1
ERα positive MCF-7 breast cancer, Caov-3 ovarian cancer and ECC-1 uterine cancer cells and ERα negative MDA-MB-231 human breast cancer cells and HeLa, human cervical carcinoma cells and MCF-10A human mammary epithelial cells were plated at 10,000 cells/well (96 well plate) in 50 μl of medium. After about 18 hours, an additional 50 μl of medium containing 2× the desired final concentration of the test compound (C-105) was added to each well (final vol. 100 μl/well). After 24 hours Alamar Blue reagent was added and fluorescence in the wells was read after 1 hour (BMG PheraStar Microplate Reader). % relative death was determined by setting the reading for 10,000 nM raptinal-treated cells to 100% dead cells and the reading for vehicle-treated cells to 0% dead cells. (Data is the average ±SEM of 3 independent experiments with 5 biological replicates for each sample within each independent experiment.)
FIG. 3 compares the ability of (±)-105 to kill ERα positive and ERα negative cells. The dose response tests the ability of (±)-105 to rapidly kill ERα positive and ERα negative cells. […] After 24 hours Alamar Blue reagent was added and fluorescence in the wells was read. % relative death was determined by setting the reading for […] raptinal-treated cells to 100% dead cells and the reading for vehicle-treated cells to 0% dead cells. […]

[3] = tested on: ERα positive breast cancer; test: Mouse xenograft model of ERα positive breast cancer (BHPI); assay type: in vivo; settings: reasonable doses
[4] = tested on: TYS-Luc and TDG-Luc cells; test: Xenograft studies using TYS-Luc and TDG-Luc cells (BHPI); assay type: in vivo, mouse; settings: after 4 weeks
Text: In xenograft studies using TYS-Luc and TDG-Luc cells after 4 weeks the vehicle control breast tumors had roughly quadrupled in cells.

[5] = tested on: partially BHPI-resistant T47D clones 1,3,8, and 11; test: MTS growth assay, partially BHPI-resistant T47D clones; assay type: cell-based, human; settings: 100 nM and 1 μM; 4 days
Experimental: (§4) ERα containing T47D human breast cancer cells able to survive in 1 μM BHPI were selected by clonal outgrowth. The effect of 100 nM and 1 μM BHPI and (−)-105 on growth of the (BHPI-sensitive) parental T47D cells and partially BHPI-resistant T47D clones 1,3,8, and 11 was evaluated. 4,000 cells/well were plated. Cell number was determined by MTS assay from a standard curve of absorbance versus cell number. […] Thus, in 4 days (−)-105 killed some, but not all, of the resistant cells.

T47D, TYS and TDG cells = test: MTS proliferation assay (4 days), T47D, TYS and TDG; assay type: cell-based, human
Experimental: FIG. 30 compares the ability of BHPI and test compounds to inhibit proliferation of T47D, TYS and TDG cells. T47D cells were in medium containing 10 FBS (which contains estrogen), TYS-4 and TDG-1 cells were in medium containing 10% cd-FBS (estrogen depleted). Cells are plated at 2,000 cells/well in 96 well plates. After 24 hours in medium containing FBS or charcoal-dextran treated FBS (depleted of endogenous estrogens), the indicated concentration of each compound (in DMSO at 1/1000th of the volume of medium) was added. After 2 days the medium was changed, and the compounds were added again. After 2 additional days (4 days total) MTS assays are used to evaluate cell proliferation. (n=6 ±S.E.M.).

[6] = tested on: ERα Negative MCF-10A cells; test: Trypan Blue exclusion cell death assay, MCF-10A; assay type: cell-based; settings: 75 nM, 24 hours
Text: as §2, §3
In FIG. 28, neither the test compounds nor BHPI kill non-tumorigenic ERα Negative MCF-10A breast cells. ERα Negative MCF-10A cells were maintained for 24 hours in DMSO vehicle or 75 nM of BHPI or 75 nM of each of the indicated test compounds: 4, 6 and 105. Cell death was determined using the instrument-based Trypan Blue exclusion assay. (n=3±SEM).

TYS-Luc cells = test: Long-term cell culture experiment (treat 2 weeks, regrow 4 weeks), MTS, TYS-Luc; assay type: cell-based, human; settings: 1 μM for 2 weeks, then 4 weeks without drug
Experimental: To simulate the effect of several weeks of treatment of a tumor in a mouse xenograft, long-term cell culture experiments were performed. TYS-Luc cells (T47DERαY537S-Luc cells; ERαY537S is the most lethal ERα mutation seen in metastatic breast cancer) were plated at 4,000 cells/well in 96 well plates. […] After 2 weeks (medium change every 2 days) cell number was determined using MTS and a standard curve of absorbance versus cell number for TYS-Luc cells. Notes: (i) Bars denote the BHPI and (−)-105 arms of the experiment. No drug is present during regrow. […] This allows any surviving cells to regrow. After 4 weeks the cells were assayed using MTS. […] (Note: Visual inspection of the wells confirmed that there were no cells in the well treated for 2 weeks with active (−)-105.) To test whether the cells that regrew after BHPI treatment were resistant to BHPI they were re-treated for another cycle (BHPI Retreat) and shown to retain sensitivity to BHPI killing. (n=8 biological replicates ±SEM.

[7] = tested on: CaOV-3 ovarian cancer cells; test: Automated Trypan Blue exclusion cell death assay, Caov-3; assay type: cell-based, human; settings: 24 hours
Experimental: FIG. 33. 105, but not BHPI, kills therapy-resistant ovarian CaOV-3 ovarian cancer cells. (±)-105; Cell death assay: Automated Trypan Blue exclusion. (24 hours post (±)-105)
as §2
as §3, with “After inserting the slide into the Fisher TC20 counting is automatic (these many cells are needed because an accurate ratio of Trypan Blue positive to Trypan Blue negative cells requires about 200 cells in the field the instrument counts).” left out

parental T47D cells = test: MTS growth assay, parental T47D cells; assay type: cell-based, human; settings: 100 nM and 1 μM; 4 days
Experimental: as §4

MCF-7 and TYS-Luc = test: Trypan Blue cell death plus or minus 2-APB, MCF-7 and TYS-Luc; assay type: cell-based, human
Experimental: ERα positive MCF-7 and TYS-Luc were treated with DMSO vehicle (Veh), or BHPI or (−)-105 plus or minus 2-APB for the indicated times. Cells death was determined using the instrument-based Trypan Blue exclusion assay. […] This is consistent with (−)-105 inducing powerful lethal activation of the anticipatory UPR pathway. (n=3±SEM).

SMILES: O=C1Nc2c(C(F)(F)F)cccc2C1(c1ccc(O)cc1)c1ccc(OC(F)(F)F)cc1 (single isomer, unassigned; (+)) [(+)-105, 3-(4-hydroxyphenyl)-3-(4-(trifluoromethoxy)phenyl)-7-(trifluoromethyl)indolin-2-one]
- IC50 (MCF-7 cells; normalized to vehicle and raptinal, listed as (S)-1): > 1 µM
- IC50 (MCF-7 cells; Homo sapiens, MCF7, 24 h): > 1 µM
- activity of enantiomers (cell death) (T47D cells): inactive
- killing of TDG-Luc cells, dose response (TDG cells): inactive and does not kill
- eradication of cells in long-term experiment [1]: inactive
- effect in ERα positive and ERα negative cell lines [2]: ineffective and not toxic

SMILES: Cc1cccc2c1NC(=O)C2(c1ccc(O)cc1)c1ccc(O)cc1 [BHPI, reference compound]
- tumor growth / detectability (OVCAR-3 cells; OVCAR-3 orthotopic xenograft): strongly reduced tumor growth
- tolerability in mice (OVCAR-3 cells; both xenograft studies): well tolerated
- tumor growth [3]: stopped tumor growth and induced rapid and substantial tumor regression
- tumor regression [4]: 97%-99.5%
- effect on growth / cell number [5]: inhibited growth but could not stop growth of the resistant clones
- inhibition of proliferation (T47D, TYS and TDG cells): effectively inhibit proliferation
- cell death of MCF-10A cells [6]: neither BHPI nor any of the test compounds induce significant death
- regrowth of cells after drug removal (TYS-Luc cells): robust regrowth
- killing of Caov-3 cells [7]: blocks growth of Caov-3 cells but does not kill them
- effect on growth / cell number (parental T47D cells): blocked growth and killed many of the T47D cells

SMILES: NCCOB(c1ccccc1)c1ccccc1 [Compound 2-APB]
- block of (−)-105-induced cell death (MCF-7 and TYS-Luc; 45 and 60 min.): partially blocked
- block of (−)-105-induced cell death (MCF-7 and TYS-Luc; 30 minutes): nearly completely blocked
